Source: patent US6737246B2, “Method for detecting protein inhibitors and ligands of medical value” (Aventis Pharma Deutschland, GmbH, priority 2000, dated 2004)

Biological target: T1, MMP-13 (Homo sapiens, UniProt P45452)
T1 construct: purchased Invitek GmbH, Berlin, Germany HM 13110010
Test: MMP-13 marker substrate conversion (fluorescence) in the presence of collagen II and test substance
Format: biochemical
Conditions: control without test substance 49%
Experimental: MMP-13 was obtained as a commercial product (Cat. No. HM 13110010) from Invitek GmbH, Berlin, Germany, activated according to the manufacturer's instruction, and diluted to 10 μg/10 ml with TCB buffer. TCB buffer was prepared by dissolving 10 mM tris(hydroxymethyl)aminomethane (Sigma-Aldrich Chemie GmbH, Deisenhofen, Germany) in water and adjusting the pH to 7.5 with HCl. 100 mM CaCl2×2H2O (Merck KGaA, Darmstadt, Germany) and 0.05% of Brij 35 solution, 30% (w/v) (Sigma-Aldrich Chemie GmbH, Deisenhofen, Deutschland), are added to said solution.
A solution of 10 mmol/l (7-methoxycoumarin-4-yl )acetyl-Pro-Leu-Gly-Leu-(3-[2,4-dinitrophenyl]-L-2,3-diaminopropionyl)-Ala-Arg-[…] (SEQ ID NO: 1). (Bachem Biochemica GmbH, Heidelberg, Germany) in dimethyl sulfoxide (DMSO) (Riedel-de Haen AG, Seelze, Germany) was diluted 1:40 (v/v) with water.
10 mg of human […] (Biocon, Potsdam, Germany) were dissolved in 2400 μl of 10 mmol/l acetic acid (72 hours at 4° C.), and then 1300 μl of a sodium bicarbonate solution (250 mmol/l) CaCl2×2H2O (Merck KGaA, Darmstadt, Germany) were added dropwise.
Test substance (suspected inhibitor or ligand), typically dissolved in water at an appropriate concentration relative to the amount of enzyme used.
The components A) (25 μl), B) (5 μl), C) (10 μl) and D) (10 μl) were mixed in a total volume of 50 μl, and fluorescence was measured in a commercial spectrofluorimeter after 15 minutes (excitation at 330 nm, emission at 390 nm, Spectrafluor plus, Tecan Deutschland GmbH, Crailsheim, Germany).
Enzyme and inhibitor were preincubated at room temperature for 15 min. The reaction was started by adding 5 μl of marker substrate solution (component B at 25 μM).
The fluorescence in example 1 was set at 100%, and the measured values of the other examples are based on this value.

[1] = 200 μmol/l test substance, components A (MMP-13), B (marker substrate), C (collagen II) present

Row | Measured value (fluorescence, example 1 set at 100%) (60 μg/well (60 μg/50 μl) test substance, components A, B, C present) [%] | Measured value (fluorescence, example 1 set at 100%) [1] [%] | Measured value (fluorescence, example 1 set at 100%) (200 μmol/l test substance, components A (MMP-13), B (marker substrate), C (collagen II) present, listed as (I)) [%] | Molecule
1 | 73 | – | – | protamine sulfate
2 | – | 0 | – | C[C@H]1c2cccc(O)c2C(=O)C2=C(O)[C@]3(O)C(=O)C(C(N)=O)=C(O)[C@@H](N(C)C)[C@@H]3[C@@H](O)[C@@H]21 [doxycycline]
3 | – | 59 | 59 | Fc1ccc(/C(=C\CCN2CCC(=C(c3ccccc3)c3ccccc3)CC2)c2ccccc2)cc1 [substance (I), 4-(diphenylmethylene)-1-[4-(p-fluorophenyl)-4-phenyl-3-butenyl]piperidine]
